Where two headings read alike, the source gives them in different places.
Assays:
PDE4 = assay: Evaluation of PDE4 inhibitory activity, scintillation proximity assay; type: biochemical; settings: scintillation proximity assay
Outline: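 SPA with [2,8-3H]-cAMP and diluted PDE4 enzyme preparation in 50 mM Tris-HCl pH 7.4, 8.3 mM MgCl2, 1.7 mM EGTA, 3 mg/mL BSA, 120 min at room temperature. Product captured on ZnSO4-containing YSi-SPA beads, scintillation counted; IC50 from inhibition curves vs DMSO control and no-enzyme blank.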

[1] = Hepatic metabolic stability (rat liver microsome method); type: in vitro ADME; settings: rat liver microsomes 0.5 mg/mL, test substance 1 μM, NADPH 1 mM, 37° C., 30 minutes
Experimental: Metabolic stability in rat liver microsomes was evaluated by the following method. First, in 100 mM of potassium phosphate buffer solution (pH 7.4), liver microsomes (concentration at reaction: 0.5 mg/mL) and the test substance (concentration at reaction: 1 μM) were preincubated at 37° C. Five minutes later, 100 mM of potassium phosphate buffer (pH 7.4) solution of NADPH (concentration at reaction: 1 mM) was mixed thereto to start the reaction. After a predetermined time passed, acetonitrile was mixed to the reaction mixture to stop the reaction. Here, the reaction time was 0 and 30 minutes, and drug concentration measurement was performed for each time period using LC-MS. The % remaining value of the test compound was calculated from the value for 0 minutes and the value for 30 minutes, using the calculation formula below: % Remaining=(Value for 30 Minutes/Value for 0 Minutes)×100
The results of measuring the rat liver microsome metabolic Stability (% remaining for 30-minute reaction) for the test compound by the above method were evaluated in accordance with the following evaluated basis; A: a % remaining rate of 75% or more, B: 60% or more and less than 75%, C: 45% or more and less than 60%, and D: less than 45%.

[2] = read-out: PDE4 Inhibitory Activity (Evaluation 1; concentration for the inhibition rate of 50%)
[3] = class symbols of Evaluation 1, read-out: PDE4 Inhibitory Activity (concentration for the inhibition rate of 50%, IC50), Evaluation 1

SMILES | IC50 (PDE4; [2]) [µM] | Residual ratio (% remaining for 30-minute reaction) [1] | IC50 (PDE4; [3]) [µM]
CC(C)(O)C(F)(F)Oc1c(Cl)cc(-c2nccs2)c2oc(N3CC4CC(C3)N4)nc12 [Example 400, 1-((2-(3,6-Diazabicyclo[3.1.1]heptan-3-yl)-5-chloro-7-(thiazol-2-yl)benzo[d]oxazol-4-yl)oxy)-1,1-difluoro-2-methylpropan-2-ol] | < 0.1 | B (B: 60% or more and less than 75%) | 
CC(C)(O)C(F)(F)Oc1ccc(-c2ncco2)c2oc(N3CC4CCC(C3)N4)nc12 [Example 321, 1-((2-(3,8-Diazabicyclo[3.2.1]octan-3-yl)-7-(oxazol-2-yl)benzo[d]oxazol-4-yl)oxy)-1,1-difluoro-2-methylpropan-2-ol] | < 0.1 | A (A: a % remaining rate of 75% or more) | 
Cc1cc(C(F)(F)F)c(Oc2ccc(-c3nccs3)c3oc(N4CC5CC(C4)N5)nc23)nn1 [Example 340, 2-(3,6-Diazabicyclo[3.1.1]heptan-3-yl)-4-((6-methyl-4-(trifluoromethyl)pyridazin-3-yl)oxy)-7-(thiazol-2-yl)benzo[d]oxazole] | < 0.1 | A (A: a % remaining rate of 75% or more) | 
CC(O)(CO)C(F)(F)Oc1ccc(-c2nccs2)c2oc(N3CC4CC(C3)N4)nc12 (racemic) [Example 326, 3-((2-(3,6-Diazabicyclo[3.1.1]heptan-3-yl)-7-(thiazol-2-yl)benzo[d]oxazol-4-yl)oxy)-3,3-difluoro-2-methylpropane-1,2-diol] | < 0.1 | A (A: a % remaining rate of 75% or more) | 
COCC(F)(F)Oc1ccc(-c2nccs2)c2oc(N3CC4CC(C3)N4)nc12 [Example 392, 2-(3,6-Diazabicyclo[3.1.1]heptan-3-yl)-4-(1,1-difluoro-2-methoxyethoxy)-7-(thiazol-2-yl)benzo[d]oxazole] | < 0.1 | B (B: 60% or more and less than 75%) | 
c1csc(-c2ccc(OC3CCOCC3)c3nc(N4CC5CC(C4)N5)oc23)n1 [Example 294, 2-(3,6-Diazabicyclo[3.1.1]heptan-3-yl)-4-((tetrahydro-2H-pyran-4-yl)oxy)-7-(thiazol-2-yl)benzo[d]oxazole] | < 0.1 | A (A: a % remaining rate of 75% or more) | 
FC(F)(F)Oc1ccc(Oc2ccc(-c3nccs3)c3oc(N4CC5CC(C4)N5)nc23)nc1 [Example 343, 2-(3,6-Diazabicyclo[3.1.1]heptan-3-yl)-7-(thiazol-2-yl)-4-((5-(trifluoromethoxy)pyridin-2-yl)oxy)benzo[d]oxazole] | < 0.1 | B (B: 60% or more and less than 75%) | 
Cn1ccc(-c2ccc(OC(F)(F)C(C)(C)O)c3nc(N4CC5CC(C4)N5)oc23)n1 [Example 394, 1-((2-(3,6-Diazabicyclo[3.1.1]heptan-3-yl)-7-(1-methyl-1H-pyrazol-3-yl)benzo[d]oxazol-4-yl)oxy)-1,1-difluoro-2-methylpropan-2-ol] | 0.1 to 1 | A (A: a % remaining rate of 75% or more) | 
O=S(=O)(c1ccc(-c2nccs2)c2oc(N3CC4CC(C3)N4)nc12)C(F)(F)F [Example 334, 2-(3,6-Diazabicyclo[3.1.1]heptan-3-yl)-7-(thiazol-2-yl)-4-((trifluoromethyl)sulfonyl)benzo[d]oxazole] | < 0.1 | B (B: 60% or more and less than 75%) | 
c1csc(-c2ccc(OC3CCOCC3)c3nc(N4CC5CCC(C4)N5)oc23)n1 [Example 254, 2-(3,8-Diazabicyclo[3.2.1]octan-3-yl)-4-((tetrahydro-2H-pyran-4-yl)oxy)-7-(thiazol-2-yl)benzo[d]oxazole] | < 0.1 | A (A: a % remaining rate of 75% or more) | 
FC(F)(F)c1c(Cl)cc(-n2cccn2)c2oc(N3CC4CC(C3)N4)nc12 [Example 17, 2-(3,6-Diazabicyclo[3.1.1]heptan-3-yl)-5-chloro-7-(1H-pyrazol-1-yl)-4-(trifluoromethyl)benzo[d]oxazole] |  | B (B: 60% or more and less than 75%) | < 0.1
Fc1ccc(-c2cc(Cl)c(OC(F)(F)F)c3nc(N4CC5CCC(C4)N5)oc23)nc1 [Example 10, 2-(3,8-Diazabicyclo[3.2.1]octan-3-yl)-5-chloro-7-(5-fluoropyridin-2-yl)-4-(trifluoromethoxy)benzo[d]oxazole] |  | A (A: a % remaining rate of 75% or more) | < 0.1
NC(=O)c1ccc(-c2nccs2)c2oc(N3CC4CC(C3)N4)nc12 [Example 354, 2-(3,6-Diazabicyclo[3.1.1]heptan-3-yl)-7-(thiazol-2-yl)benzo[d]oxazole-4-carboxamide] | < 0.1 | A (A: a % remaining rate of 75% or more) | 
OCCSc1ccc(-c2nccs2)c2oc(N3CC4CC(C3)N4)nc12 [Example 348, 2-((2-(3,6-Diazabicyclo[3.1.1]heptan-3-yl)-7-(thiazol-2-yl)benzo[d]oxazol-4-yl)thio)ethan-1-ol] | < 0.1 | B (B: 60% or more and less than 75%) | 
CC(C)(O)C(F)(F)Oc1ccc(-c2nccs2)c2oc(N3CC4CCC(C3)N4)nc12 [Example 405, 1-((2-(3,8-Diazabicyclo[3.2.1]octan-3-yl)-7-(thiazol-2-yl)benzo[d]oxazol-4-yl)oxy)-1,1-difluoro-2-methylpropan-2-ol] | < 0.1 | B (B: 60% or more and less than 75%) | 
CC(C)(O)C(F)(F)Oc1ccc(-c2ccc(Cl)cn2)c2oc(N3CC4CC(C3)N4)nc12 [Example 363, 1-((2-(3,6-Diazabicyclo[3.1.1]heptan-3-yl)-7-(5-chloropyridin-2-yl)benzo[d]oxazol-4-yl)oxy)-1,1-difluoro-2-methylpropan-2-ol] | < 0.1 | A (A: a % remaining rate of 75% or more) | 
CC(C)(O)C(F)(F)Oc1ccc(-c2ncccn2)c2oc(N3CC4CCC(C3)N4)nc12 [Example 330, 1-((2-(3,8-Diazabicyclo[3.2.1]octan-3-yl)-7-(pyrimidin-2-yl)benzo[d]oxazol-4-yl)oxy)-1,1-difluoro-2-methylpropan-2-ol] | < 0.1 | A (A: a % remaining rate of 75% or more) | 
O=C(NC1CC1)c1ccc(-c2nccs2)c2oc(N3CC4CC(C3)N4)nc12 [Example 357, 2-(3,6-Diazabicyclo[3.1.1]heptan-3-yl)-N-cyclopropyl-7-(thiazol-2-yl)benzo[d]oxazole-4-carboxamide] | < 0.1 | A (A: a % remaining rate of 75% or more) | 
CC(C)(O)C(F)(F)Oc1ccc(-n2nccn2)c2oc(N3CC4CCC(C3)N4)nc12 [Example 322, 1-((2-(3,8-Diazabicyclo[3.2.1]octan-3-yl)-7-(2H-1,2,3-triazol-2-yl)benzo[d]oxazol-4-yl)oxy)-1,1-difluoro-2-methylpropan-2-ol] | < 0.1 | A (A: a % remaining rate of 75% or more) | 
c1ccc(Oc2ccc(-c3nccs3)c3oc(N4CC5CC(C4)N5)nc23)nc1 [Example 337, 2-(3,6-Diazabicyclo[3.1.1]heptan-3-yl)-4-(pyridin-2-yloxy)-7-(thiazol-2-yl)benzo[d]oxazole] |  | B (B: 60% or more and less than 75%) | 

From patent US12239643B2, “Therapeutic agent for inflammatory diseases, autoimmune diseases, fibrotic diseases, and cancer diseases” (MEIJI SEIKA PHARMA CO., LTD., priority 2018, dated 2025)
